Experimental data as given in patent publication US20180201609A1 (AURIGENE DISCOVERY TECHNOLOGIES LIMITED, priority 2015, published 2018).
Counter-ions that a name gives are not always drawn.

Target: T1, IRAK-4 enzyme (Homo sapiens, UniProt Q9NWZ3)
T1 construct: purchased Millipore, USA
T1 sequence (Q9NWZ3 1-460): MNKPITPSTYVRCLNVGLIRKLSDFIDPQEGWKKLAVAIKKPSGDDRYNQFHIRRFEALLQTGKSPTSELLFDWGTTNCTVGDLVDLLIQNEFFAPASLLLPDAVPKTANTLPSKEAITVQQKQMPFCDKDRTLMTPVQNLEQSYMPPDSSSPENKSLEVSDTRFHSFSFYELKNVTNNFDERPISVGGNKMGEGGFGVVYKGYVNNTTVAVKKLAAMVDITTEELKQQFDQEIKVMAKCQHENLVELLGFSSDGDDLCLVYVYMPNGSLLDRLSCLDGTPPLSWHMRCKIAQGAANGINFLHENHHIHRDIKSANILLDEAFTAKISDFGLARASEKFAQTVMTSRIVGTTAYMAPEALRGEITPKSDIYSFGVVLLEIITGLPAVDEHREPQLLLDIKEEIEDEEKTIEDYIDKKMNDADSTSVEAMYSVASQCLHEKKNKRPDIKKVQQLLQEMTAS
Test: IRAK-4 Biochemical Assay (TR-FRET)
Conditions: recombinant IRAK-4 kinase, 20 μM ATP
Experimental: Compounds were tested for their potential to inhibit IRAK-4 enzyme in a TR-FRET assay using recombinant IRAK-4 kinase from Millipore, USA. The assay buffer was 50 mM Tris-HCl pH 7.5, 20 mM MgCl2, 1 mM EGTA, 2 mM DTT, 3 mM MnCl2 and 0.01% Tween 20.5 ng of IRAK-4 kinase was used for the assay. After pre-incubation of enzyme with test compound for 30 minutes at room temperature, a substrate mixture containing 100 nM Biotin Histone H3 (Millipore, USA) and 20 μM ATP (Sigma, USA) was added and the reaction was incubated for 30 min. Post incubation, the reaction was stopped by the addition of stop mix containing 40 mM EDTA, 1 nM of Europium-Anti-Phospho-Histone H3 (Ser10) antibody (Perkin Elmer, USA) and 20 nM SureLight Allophycocyanin-Streptavidin (Perkin Elmer, USA). The fluorescence emission at 615 nm and 665 nm were measured at an excitation of 340 nm and the percent inhibition was estimated from the ratio of the fluorescence intensities [(F665/F615)×10000].
The compounds of the present invention were screened in the above mentioned assay and the percent inhibition data is summarized in the Table 1.

Compound	inhibition at 0.1 µM (0.1 μM compound) [%]	inhibition at 1 µM (1 μM compound) [%]	% inhibition of IRAK-4 activity @0.1 μM (0.1 μM compound) [%]	% inhibition of IRAK-4 activity @1 μM (1 μM compound) [%]
Cn1cc2cc(NC(=O)c3cc(-c4ccc(N)nc4)ccn3)c(N3CCCCC3)cc2n1 [Example 53, 6-amino-N-(2-methyl-6-(piperidin-1-yl)-2H-indazol-5-yl)-[3,4′-bipyridine]-2′-carboxamide hydrochloride]	0	13		
O=C(Nc1cc2cn(C3CCNCC3)nc2cc1C1CC1)c1cccc(N2CCC(O)C2)n1 (stereo not drawn) [Example 54, N-(6-cyclopropyl-2-(piperidin-4-yl)-2H-indazol-5-yl)-6-(3-hydroxypyrrolidin-1-yl)picolinamide hydrochloride]	95	96		
O=C(Nc1cc2cn(CCN3CCOCC3)nc2cc1C1CC1)c1cccc(N2CCC(O)C2)n1 (stereo not drawn) [Example 55, N-(6-cyclopropyl-2-(2-morpholinoethyl)-2H-indazol-5-yl)-6-(3-hydroxypyrrolidin-1-yl)picolinamide]	92	95		
CN1CCC(n2cc3cc(NC(=O)c4cccc(N5CCC(O)C5)n4)c(C4CC4)cc3n2)CC1 (stereo not drawn) [Example 56, N-(6-cyclopropyl-2-(1-methylpiperidin-4-yl)-2H-indazol-5-yl)-6-(3-hydroxypyrrolidin-1-yl)picolinamide hydrochloride]	20	71		
Cn1cc2cc(NC(=O)c3cccc(N4CC[C@@H](O)C4)n3)c(N3CCCCC3)cc2n1 [Example 57, (R)-6-(3-hydroxypyrrolidin-1-yl)-N-(2-methyl-6-(piperidin-1-yl)-2H-indazol-5-yl)picolinamide]	96	101		
Cn1cc2cc(NC(=O)c3cccc(N4CC[C@@H](OC(=O)CN)C4)n3)c(N3CCCCC3)cc2n1 [Example 58, (R)-1-(6-((2-methyl-6-(piperidin-1-yl)-2H-indazol-5-yl)carbamoyl)pyridin-2-yl)pyrrolidin-3-yl glycinate 2,2,2-trifluoroacetate]	91	96		
Cc1ccc(C(=O)Nc2cc3cn(C)nc3cc2N2CCCCC2)nc1N1CCC(O)C1 (stereo not drawn) [Example 59, 6-(3-hydroxypyrrolidin-1-yl)-5-methyl-N-(2-methyl-6-(piperidin-1-yl)-2H-indazol-5-yl)picolinamide]	74	91		
Cc1ccc(C(=O)Nc2cc3cn(C)nc3cc2N2CCCCC2)nc1N1CCC(O)CC1 [Example 60, 6-(4-hydroxypiperidin-1-yl)-5-methyl-N-(2-methyl-6-(piperidin-1-yl)-2H-indazol-5-yl)picolinamide]	73	97		
COCCn1cc2cc(NC(=O)c3cccc(N4CCC(O)C4)n3)c(N3CCCCC3)cc2n1 (stereo not drawn) [Example 61, 6-(3-hydroxypyrrolidin-1-yl)-N-(2-(2-methoxyethyl)-6-(piperidin-1-yl)-2H-indazol-5-yl)picolinamide]	94	97		
COc1ccc(C(=O)Nc2cc3cn(C)nc3cc2N2CCCCC2)nc1N1CCC(O)C1 (stereo not drawn) [Example 62, 6-(3-hydroxypyrrolidin-1-yl)-5-methoxy-N-(2-methyl-6-(piperidin-1-yl)-2H-indazol-5-yl)picolinamide]	9	21		
Cn1cc2cc(NC(=O)c3ccnc(N4CCC(O)C4)n3)c(N3CCCCC3)cc2n1 (stereo not drawn) [Example 63, 2-(3-hydroxypyrrolidin-1-yl)-N-(2-methyl-6-(piperidin-1-yl)-2H-indazol-5-yl)pyrimidine-4-carboxamide]	79	96		
O=C(Nc1cc2cn(CCN3CCOCC3)nc2cc1N1CCCCC1)c1cccc(N2CCC(O)C2)n1 (stereo not drawn) [Example 64, 6-(3-hydroxypyrrolidin-1-yl)-N-(2-(2-morpholinoethyl)-6-(piperidin-1-yl)-2H-indazol-5-yl)picolinamide]	96	97		
Cn1cc2cc(NC(=O)c3cncc(N4CCC(O)C4)n3)c(N3CCCCC3)cc2n1 (stereo not drawn) [Example 65, 6-(3-hydroxypyrrolidin-1-yl)-N-(2-methyl-6-(piperidin-1-yl)-2H-indazol-5-yl)pyrazine-2-carboxamide]	91	98		
Cn1cc2cc(NC(=O)c3cncc(N4CCC(O)C4)n3)c(C3CC3)cc2n1 (stereo not drawn) [Example 66, N-(6-cyclopropyl-2-methyl-2H-indazol-5-yl)-6-(3-hydroxypyrrolidin-1-yl)pyrazine-2-carboxamide hydrochloride]	23	75		
Cl.Cn1cc2cc(NC(=O)c3cncc(N4CCC(O)C4)n3)c(N3CCCCC3)cc2n1 (stereo not drawn) [Example 67, 6-(3-hydroxypyrrolidin-1-yl)-N-(2-methyl-6-(piperidin-1-yl)-2H-indazol-5-yl)pyrazine-2-carboxamide hydrochloride]			82	92
Cn1cc2cc(NC(=O)c3cccc(N4CCC(O)C4)n3)c(N3CCOCC3)cc2n1 (stereo not drawn) [Example 68, 6-(3-hydroxypyrrolidin-1-yl)-N-(2-methyl-6-morpholino-2H-indazol-5-yl)picolinamide]	75	96		
Cn1cc2cc(NC(=O)c3cc(N4CCC(O)C4)ccn3)c(N3CCCCC3)cc2n1 (stereo not drawn) [Example 69, 4-(3-hydroxypyrrolidin-1-yl)-N-(2-methyl-6-(piperidin-1-yl)-2H-indazol-5-yl)picolinamide]	7	9		
Cc1cc2nn(C)cc2cc1NC(=O)c1cccc(N2CCC(O)C2)n1 (stereo not drawn) [Example 70, N-(2,6-dimethyl-2H-indazol-5-yl)-6-(3-hydroxypyrrolidin-1-yl)picolinamide]	27	82		
Cn1cc2cc(NC(=O)c3cc(N4CCC(O)C4)ccn3)c(C3CC3)cc2n1 (stereo not drawn) [Example 71, N-(6-cyclopropyl-2-methyl-2H-indazol-5-yl)-4-(3-hydroxypyrrolidin-1-yl)picolinamide hydrochloride]	67	95		
Cn1cc2cc(NC(=O)c3ccnc(N4CCC(O)C4)n3)c(C3CC3)cc2n1 (stereo not drawn) [Example 72, N-(6-cyclopropyl-2-methyl-2H-indazol-5-yl)-2-(3-hydroxypyrrolidin-1-yl)pyrimidine-4-carboxamide]	29	86		
Cn1cc2cc(NC(=O)c3ccc(N4CCC(O)C4)cn3)c(N3CCCCC3)cc2n1 (stereo not drawn) [Example 73, 5-(3-hydroxypyrrolidin-1-yl)-N-(2-methyl-6-(piperidin-1-yl)-2H-indazol-5-yl)picolinamide]	10	51		
